Source: publication PMC8877905, “Novel Cocrystals of Vonoprazan: Machine Learning-Assisted Discovery” (Pharmaceutics, 2022)
Like-named read-outs stand apart in the source and are kept apart here.

Assays:
[1] = pKa calculation with ChemAxon calculator and ΔpKa rule; conditions: pKa (base) − pKa (acid); VPZ pKa = 9.4 versus calculated coformer pKa
Description: The combination with a value 0 ≤ ΔpKa ≤ 3 is much less predictable and falls within a “salt-cocrystal continuum” [38]. We applied this approach to the coformers selected based on virtual cocrystal screening to assess whether the combination would form a cocrystal or salt (Table 1).

[2] = Equilibrium solubility in pH 1.2 and pH 6.8 solutions, 37 °C, 24 h, HPLC; format: physicochemical; conditions: for solubility thermodynamic at 24 h: 37 °C, VPZ concentration by HPLC
Method: Excess amounts (~500 mg) of powder samples were added to 10 mL of pH 1.2 solution and 30 mL of pH 6.8 solution. […] After 24 h, aliquots of 2.5 mL were withdrawn from the suspension using a 0.45 μm nylon syringe filter and diluted immediately, followed by analysis of the VPZ concentration by HPLC.
The VPZ concentration was measured using an HPLC system (UFLC; Shimadzu) with a diode array detector and Shim-pack GIS-ODS C18 column (4.6 × 250 mm, 5 μm). HPLC analysis was conducted at a column oven temperature of 40 °C with a flow rate of 1 mL/min, and the mobile phase was a mixture of 20 mM ammonium formate in water (pH 3.05) and HPLC-grade MeOH with the addition of 10 mM triethylamine (TEA) (80% : 20%, v/v). The volume of the injected samples was 10 μL and the VPZ content was assayed spectrophotometrically at a wavelength of 245 nm.

[3] = Intrinsic dissolution rate (IDR) in phosphate buffer pH 6.8; format: physicochemical; conditions: for IDR in pH 6.8: phosphate buffer pH 6.8, 37 °C, 50 rpm, 13 mm pellet
Method: IDR was investigated using a Distek […] dissolution tester (Distek, North Brunswick, NJ, USA). […] Aliquots of 1.5 mL of the dissolution samples were collected at predetermined time intervals, filtered through 0.45 μm syringe filters, and analyzed for their VPZ concentration by HPLC. The VPZ concentration was measured using an HPLC system (UFLC; Shimadzu) with a diode array detector and Shim-pack GIS-ODS C18 column (4.6 × 250 mm, 5 μm). […] The volume of the injected samples was 10 μL and the VPZ content was assayed spectrophotometrically at a wavelength of 245 nm.

[4] = Stability in aqueous solution: PXRD of solids remaining after 24 h slurry; format: physicochemical; conditions: pH 6.8 solution, slurry for 24 h
Method: The solubility and dissolution behavior of drugs in aqueous solvent are important physicochemical properties for good oral bioavailability. VPZ has pH-dependent solubility, which increases with decreasing pH. […] The aqueous solubility for cocrystals and salts of VPZ was measured in pH 1.2 and 6.8 buffer solutions at 37 °C. VPZ concentrations were determined in aliquots retrieved from the suspensions after 24 h by HPLC. One of the major challenges in investigations of solubility in multicomponent solid forms is the change in the solution composition due to precipitation of the components dissociated over the test period. In this study, the stability of the cocrystals in aqueous solution was checked by PXRD analysis of the solids remaining after solubility experiments. At pH 1.2, however, the amount recovered from the suspensions was too low to confirm their stability. […] Under both conditions, the solubility order was VPZ–RES > VPZ–CAT > VPZ–GAL.

[5] = Accelerated stability testing in the solid state; format: physicochemical
[6] = parameters: method as in PMID 28578848; conditions: cited from earlier work

| Compound | ΔpKa [1] | further results |
| --- | --- | --- |
| O=C(O)c1ccc(O)cc1 [4-hydroxybenzoic acid] | 5.02 | – |
| NC(=O)c1ccccc1 [Benzamide] | −5.16 | – |
| NC(=O)CO [Glycolamide] | −4.25 | – |
| Oc1ccc(O)cc1 [Hydroquinone] | −0.58 | – |
| NC(=O)c1ccncc1 [Isonicotinamide] | −4.31 | – |
| Cc1cc(O)ccc1O [Methyl-hydroquinone] | −0.7 | – |
| NC(=O)c1cccnc1 [Nicotinamide] | −3.99 | – |
| NC(=O)C(=O)O [Oxamic acid] | 6.92 | – |
| CNCc1cc(-c2ccccc2F)n(S(=O)(=O)c2cccnc2)c1.O=C(O)/C=C/C(=O)O [VPZ-FUM, 1-[5-(2-Fluorophenyl)-1-(pyridin-3-ylsulfonyl)-1H-pyrrol-3-yl]-N-methylmethanamine monofumarate] | – | solubility at 24 h ([2]; Figure 7a, pH 1.2 buffer, read-out: Solubility in pH 1.2 buffer, Concentration): 27600 µg/mL; solubility at 24 h ([2]; Figure 7b, pH 6.8 buffer, read-out: Solubility in pH 6.8 buffer, Concentration): 3400 µg/mL; solubility thermodynamic at 24 h ([2]; pH 1.2 solution, read-out: Equilibrium Solubility after 24 h in pH 1.2): 27710 ± 210 µg/mL; solubility thermodynamic at 24 h ([2]; pH 6.8 solution, read-out: Equilibrium Solubility after 24 h in pH 6.8): 3400 ± 450 µg/mL; time to reach peak concentration in IDR plot ([3]; pH 6.8 buffer): ≤ 60 min; IDR in pH 6.8 [3]: 1.35 mg/cm^2∙min; stability in aqueous solution (PXRD of undissolved residue) [4]: different from those of the starting material; stability in the solid state [5]: remained stable; reported solubility in water [6]: < 1000 µg/mL |
| Vonoprazan–pyrogallol [VPZ-GAL] | – | IDR in pH 6.8 [3]: 0.69 mg/cm^2∙min |

More lines, main results first:

| ΔpKa [1] | Compound | further results |
| --- | --- | --- |
| −0.24 | Oc1ccccc1O [Pyrocatechol] | – |
| 0.3 | Oc1cccc(O)c1O [Pyrogallol] | – |
| 5.79 | O=C1CC[C@@H](C(=O)O)N1 [Pyroglutamic acid] | – |
| 5.78 | O=C(O)c1ccc[nH]1 [Pyrrole-2-carboxylic acid] | – |
| −0.17 | Oc1cccc(O)c1 [Resorcinol] | – |
| 5.54 | O=C(O)CCC(=O)O [Succinic acid] | – |
| −6.9 | NC(N)=O [Urea] | – |
| 7.46 | O=C1NS(=O)(=O)c2ccccc21 [saccharin] | – |
